Assay results taken from US20250179103A1, “6-OXODECAHYDROPYRROLO[1,2-A][1,5]DIAZOCINE AND 6-OXODECAHYDRO-4H-PYRROLO[2,1-D][1,5]THIAZOCINE DERIVATIVES AS STAT3 AND STAT6 MODULATORS FOR THE TREATMENT OF CANCER AND INFLAMMATORY CONDITIONS” (Recludix Pharma, Inc., priority 2022, published 2025).

Legend:
[1] = target: T1, Recombinant STAT3 protein (STAT3(G127-I722)) (Homo sapiens, UniProt P40763); test: STAT3 Fluorescence Polarization (FP) Assay; format: binding; conditions: STAT3(G127-I722) 25 nM, probe 5-FAM-GpYLPQTV-NH2 2 nM, 45-minute incubation
T1 construct: Recombinant STAT3 protein (STAT3(G127-I722))
T1 sequence (P40763 127-722): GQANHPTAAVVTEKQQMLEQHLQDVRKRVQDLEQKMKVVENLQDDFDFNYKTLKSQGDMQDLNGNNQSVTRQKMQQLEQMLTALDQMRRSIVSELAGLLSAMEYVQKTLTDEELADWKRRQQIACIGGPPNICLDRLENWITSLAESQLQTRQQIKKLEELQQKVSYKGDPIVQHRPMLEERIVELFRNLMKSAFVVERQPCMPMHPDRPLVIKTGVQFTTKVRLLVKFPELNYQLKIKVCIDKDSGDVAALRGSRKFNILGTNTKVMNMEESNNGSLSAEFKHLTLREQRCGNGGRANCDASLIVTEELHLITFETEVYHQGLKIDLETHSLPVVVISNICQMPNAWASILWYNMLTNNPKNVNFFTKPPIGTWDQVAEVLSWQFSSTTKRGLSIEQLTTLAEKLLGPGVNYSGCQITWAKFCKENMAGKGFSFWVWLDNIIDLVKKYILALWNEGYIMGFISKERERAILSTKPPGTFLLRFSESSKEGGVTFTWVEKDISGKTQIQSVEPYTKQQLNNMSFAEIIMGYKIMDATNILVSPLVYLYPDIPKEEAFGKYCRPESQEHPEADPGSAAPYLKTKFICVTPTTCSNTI
Procedure, shortened: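 STAT3(G127-I722), 25 nM, was mixed with 2 nM 5-FAM-GpYLPQTV-NH2 probe in HEPES pH 7.4 buffer with 1% DMSO and serially diluted compound. FP (mP) was read after 45 min at room temperature. IC50 came from nonlinear regression.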

[2] = target: T2, Recombinant STAT6 protein (STAT6(W123-T658)) (Homo sapiens, UniProt P42226); test: STAT6 Fluorescence Polarization (FP) Assay; format: binding; conditions: STAT6(W123-T658) 250 nM, probe 5-FAM-ApYKPFQDLI-NH2 2 nM, 45-minute incubation
T2 construct: Recombinant STAT6 protein (STAT6(W123-T658))
T2 sequence (P42226 123-658): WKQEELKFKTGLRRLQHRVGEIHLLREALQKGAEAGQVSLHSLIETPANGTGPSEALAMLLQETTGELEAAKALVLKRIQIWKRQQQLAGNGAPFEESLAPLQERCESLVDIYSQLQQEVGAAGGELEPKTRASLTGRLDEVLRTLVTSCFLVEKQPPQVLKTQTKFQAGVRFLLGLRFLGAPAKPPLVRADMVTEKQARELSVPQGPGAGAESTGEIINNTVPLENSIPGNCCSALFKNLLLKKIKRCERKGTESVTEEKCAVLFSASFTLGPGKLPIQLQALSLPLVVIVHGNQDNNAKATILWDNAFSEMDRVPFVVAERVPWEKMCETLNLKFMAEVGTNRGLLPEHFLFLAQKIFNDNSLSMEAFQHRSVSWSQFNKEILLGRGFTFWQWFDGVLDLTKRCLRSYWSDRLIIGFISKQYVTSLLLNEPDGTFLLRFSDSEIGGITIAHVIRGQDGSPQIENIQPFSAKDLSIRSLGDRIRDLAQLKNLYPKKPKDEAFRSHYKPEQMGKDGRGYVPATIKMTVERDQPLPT
Procedure, shortened: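 Displacement of a fluorescent phosphotyrosine peptide (5-FAM-ApYKPFQDLI-NH2, 2 nM) from STAT6(W123-T658) (250 nM), 1% DMSO, pH 7.4 HEPES buffer. After 45 min at room temperature, polarization (mP) was plotted versus log compound concentration and fitted by nonlinear regression to give IC50.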

SMILES	IC50 [1] [nM]	IC50 [2] [nM]
CCCS(=O)(=O)N1CC[C@H]2CC[C@@H](C(=O)N3CCOCC3)N2C(=O)[C@@H](NC(=O)c2ccc3ccc(C(F)P(=O)(O)O)cc3c2)C1 (stereo partly drawn) [Compound 361, (fluoro(7-(((5S,8S,10aR)-8-(morpholine-4-carbonyl)-6-oxo-3-(propylsulfonyl)decahydropyrrolo[1,2-a] [1,5]diazocin-5-yl)carbamoyl)naphthalen-2-yl)methyl)phosphonic acid]	> 10000	3000 to 30000
CCN1CC[C@H]2CC[C@@H](C(=O)N3C[C@@H](C#N)[C@H](c4cc[nH]c(=O)c4)C3)N2C(=O)[C@@H](NC(=O)c2ccc3ccc(C(F)(F)P(=O)(O)O)cc3c2)C1 (single isomer, unassigned) [Compound 238, ((7-(((5S,8S,10aR)-8-((3R,4S or 3S,4R)-3-cyano-4-(2-oxo-1,2-dihydropyridin-4-yl)pyrrolidine-1-carbonyl)-3-ethyl-6-oxodecahydropyrrolo[1,2-a][1,5]diazocin-5-yl)carbamoyl)naphthalen-2-yl)difluoromethyl)phosphonic acid]	1000 to 10000	300 to 3000
N#Cc1ccccc1-c1ccc(NC(=O)[C@@H]2CC[C@@H]3CCN(C(=O)Cc4ccccc4)C[C@H](NC(=O)c4cc5cc(C(F)(F)P(=O)(O)O)ccc5[nH]4)C(=O)N32)c(F)c1 [Compound 276, ((2-(((5S,8S,10aR)-8-((2′-cyano-3-fluoro-[1,1′-biphenyl]-4-yl)carbamoyl)-6-oxo-3-(2-phenylacetyl)decahydropyrrolo[1,2-a][1,5]diazocin-5-yl)carbamoyl)-1H-indol-5-yl)difluoromethyl)phosphonic acid]	1000 to 10000	300 to 3000
O=C(N[C@H]1CS(=O)(=O)CC[C@H]2CC[C@@H](C(=O)N3CC(c4cccnc4)C3)N2C1=O)c1cc2cc(C(F)(F)P(=O)(O)O)ccc2s1 [Compound 404, ((2-(((5R,8S,10aR)-3,3-dioxido-6-oxo-8-(3-(pyridin-3-yl)azetidine-1-carbonyl)octahydro-4H-pyrrolo[2,1-d][1,5]thiazocin-5-yl)carbamoyl)benzo[b]thiophen-5-yl)difluoromethyl) phosphonic acid]	≤ 100	3000 to 30000
O=C(N[C@H]1CN(C(=O)NCc2ccccc2)CC[C@H]2CC[C@@H](C(=O)Nc3ccc(-c4ccccc4)cc3)N2C1=O)c1cc2cc(C(F)(F)P(=O)(O)O)ccc2s1 [Compound 251, ((2-(((5S,8S,10aR)-8-([1,1′-biphenyl]-4-ylcarbamoyl)-3-(benzylcarbamoyl)-6-oxodecahydropyrrolo[1,2-a][1,5]diazocin-5-yl)carbamoyl)benzo[b]thiophen-5-yl)difluoromethyl)phosphonic acid]	100 to 1000	300 to 3000
Cc1ccc2onc(C(=O)N3CC[C@H]4CC[C@@H](C(=O)N5C[C@@H](c6ccn(C)c(=O)c6)CC56CC6)N4C(=O)[C@@H](NC(=O)c4ccc5ccc([C@@H](F)P(=O)(O)O)cc5c4)C3)c2c1 [Compound 380, ((S)-fluoro(7-(((5S,8S, 10aR)-8-((R)-6-(1-methyl-2-oxo-1,2-dihydropyridin-4-yl)-4-azaspiro[2.4]heptane-4-carbonyl)-3-(5-methylbenzo[d]isoxazole-3-carbonyl)-6-oxodecahydropyrrolo [1,2-a][1,5]diazocin-5-yl)carbamoyl)naphthalen-2-yl)methyl)phosphonic acid]	> 10000	≤ 300
Cc1ccc2[nH]nc(C(=O)N3CC[C@H]4CC[C@@H](C(=O)N5CC(c6cc[nH]c(=O)c6)CC56CC6)N4C(=O)[C@@H](NC(=O)c4ccc5ccc(C(F)(F)P(=O)(O)O)cc5c4)C3)c2c1 (stereo partly drawn) [Compound 367, (difluoro(7-(((5S,8S, 10aR)-3-(5-methyl-1H-indazole-3-carbonyl)-6-oxo-8-(6-(2-oxo-1,2-dihydropyridin-4-yl)-4-azaspiro[2.4]heptane-4-carbonyl)decahydropyrrolo[1,2-a][1,5]diazocin-5-yl)carbamoyl)naphthalen-2-yl)methyl) phosphonic acid]	1000 to 10000	≤ 300
O=C(N[C@H]1CN(C(=O)c2noc3c2COCC3)CC[C@H]2CC[C@@H](C(=O)N3CCOCC3)N2C1=O)c1ccc2ccc(C(F)P(=O)(O)O)cc2c1 (stereo partly drawn) [Compound 360, ((7-(((5S,8S,10aR)-3-(6,7-dihydro-4H-pyrano[3,4-d]isoxazole-3-carbonyl)-8-(morpholine-4-carbonyl)-6-oxodecahydropyrrolo [1,2-a][1,5]diazocin-5-yl)carbamoyl)naphthalen-2-yl)fluoromethyl) phosphonic acid]	> 10000	300 to 3000
CC(=O)N1CC[C@H]2CC[C@@H](C(=O)Nc3ccc4[nH]ncc4c3)N2C(=O)[C@@H](NC(=O)c2cc3cc(C(F)(F)P(=O)(O)O)ccc3s2)C1 [Compound 175, ((2-(((5S,8S,10aR)-8-((1H-indazol-5-yl)carbamoyl)-3-acetyl-6-oxodecahydropyrrolo[1,2-a][1,5]diazocin-5-yl)carbamoyl)benzo[b]thiophen-5-yl)difluoromethyl)phosphonic acid]	100 to 1000	300 to 3000
CC(=O)N1CC[C@H]2CC[C@@H](C(=O)N(C)c3ccc4nnccc4c3)N2C(=O)[C@@H](NC(=O)c2ccc3cnc(C(F)(F)P(=O)(O)O)cc3c2)C1 [Compound 119, ((6-(((5S,8S,10aR)-3-acetyl-8-(cinnolin-6-yl(methyl)carbamoyl)-6-oxodecahydropyrrolo[1,2-a][1,5]diazocin-5-yl)carbamoyl)isoquinolin-3-yl)difluoromethyl)phosphonic acid]	> 10000	300 to 3000
CC(=O)N1CC[C@H]2CC[C@@H](C(=O)N3CCCC[C@H]3Cc3ccccc3)N2C(=O)[C@@H](NC(=O)c2cc3cc(C(F)(F)P(=O)(O)O)ccc3[nH]2)C1 [Compound 106, ((2-(((5S,8S,10aR)-3-acetyl-8-((S)-2-benzylpiperidine-1-carbonyl)-6-oxodecahydropyrrolo[1,2-a][1,5]diazocin-5-yl)carbamoyl)-1H-indol-5-yl)difluoromethyl)phosphonic acid]	1000 to 10000	300 to 3000
COc1cccc(N(C)C(=O)[C@@H]2CC[C@@H]3CCN(C(C)=O)C[C@H](NC(=O)c4cc5cc(C(F)(F)P(=O)(O)O)ccc5[nH]4)C(=O)N32)c1 [Compound 165, ((2-(((5S,8S,10aR)-3-acetyl-8-((3-methoxyphenyl)(methyl)carbamoyl)-6-oxodecahydropyrrolo[1,2-a][1,5]diazocin-5-yl)carbamoyl)-1H-indol-5-yl)difluoromethyl)phosphonic acid]	1000 to 10000	300 to 3000
N#CC1CN(C(=O)C2CCC3CCN(C(=O)OCc4ccccc4)CC(NC(=O)c4cc5cc(C(F)(F)P(=O)(O)O)ccc5s4)C(=O)N32)CC1c1ccccc1 (mixture of isomers) [Compound 9, ((2-(((5S,8S,10aR)-3-((benzyloxy)carbonyl)-8-((rel-trans)-3-cyano-4-phenylpyrrolidine-1-carbonyl)-6-oxodecahydropyrrolo[1,2-a][1,5]diazocin-5-yl)carbamoyl)benzo[b]thiophen-5-yl)difluoromethyl)phosphonic acid]	100 to 1000	≤ 300
